In article PMC4459825, “ATP Binding and Hydrolysis Properties of ABCB10 and Their Regulation by Glutathione” (PLoS ONE, 2015):

Key:
[1] = target: T1, ABCB10 (ABCB10-V5) (Mus musculus, UniProt Q9JI39); assay: UV photolabelling of SMPs, anti-V5 IP, ExtrAvidin-HRP blot; conditions: 3 mM MgCl2, pH 7.5, on ice; covalent after UV irradiation; labelled compound; net of binding and hydrolysis
T1 construct: full-length cDNA in pEF1alpha-V5-His (V5-His tagged), overexpressed in HEK293; detected at approx. 65 kD; assayed in sub-mitochondrial particles, then anti-V5 immunoprecipitated
T1 sequence (Q9JI39 83-715): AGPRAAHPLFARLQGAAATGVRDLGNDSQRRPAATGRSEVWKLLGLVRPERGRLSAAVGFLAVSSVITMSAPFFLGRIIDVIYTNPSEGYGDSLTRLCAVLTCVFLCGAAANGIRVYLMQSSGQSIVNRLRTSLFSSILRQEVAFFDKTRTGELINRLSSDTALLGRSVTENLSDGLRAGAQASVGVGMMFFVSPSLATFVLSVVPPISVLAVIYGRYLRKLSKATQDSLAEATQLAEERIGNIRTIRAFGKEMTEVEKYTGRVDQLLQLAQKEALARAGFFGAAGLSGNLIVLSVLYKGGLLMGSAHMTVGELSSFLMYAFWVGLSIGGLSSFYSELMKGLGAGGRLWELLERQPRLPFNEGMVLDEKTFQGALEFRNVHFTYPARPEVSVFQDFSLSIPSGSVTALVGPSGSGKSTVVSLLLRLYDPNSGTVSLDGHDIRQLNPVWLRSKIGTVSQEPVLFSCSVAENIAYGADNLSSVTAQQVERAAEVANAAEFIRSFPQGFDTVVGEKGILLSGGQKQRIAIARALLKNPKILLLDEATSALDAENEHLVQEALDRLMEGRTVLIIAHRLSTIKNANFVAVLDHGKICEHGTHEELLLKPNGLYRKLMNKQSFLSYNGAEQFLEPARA

[2] = target: T1, ABCB10 (ABCB10-V5); assay: competition with 8-azido-ATP [γ] biotin photolabelling in SMPs, anti-V5 IP; conditions: 50 μM 8-azido-ATP [γ] biotin, 3 mM MgCl2, pH 7.5, on ice; nucleotide binding domain, competitive

Q: How did the Km [1] turn out when 8-azido-ATP [γ] biotin was run?
A: 128 µM

Q: Which “competition with 8-azido-ATP [γ] biotin photolabelling in SMPs, anti-V5 IP” value (“competition with 8-azido-ATP” for short) [2] does the source give for `Nc1ncnc2c1ncn2[C@@H]1O[C@H](COP(=O)(O)OP(=O)(O)OP(=O)(O)O)[C@@H](O)[C@H]1O` [ATP] here?
A: Increasing concentrations of unlabeled ATP decreased 8-azido-ATP [γ] biotin photolabeling

Q: Which “competition with 8-azido-ATP” value [2] does the source give for `Nc1ccn([C@@H]2O[C@H](COP(=O)(O)OP(=O)(O)OP(=O)(O)O)[C@@H](O)[C@H]2O)c(=O)n1` [CTP] here?
A: GTP, CTP and TTP could compete with ATP, but their effect was milder

Q: Which “competition with 8-azido-ATP” value [2] does the source give for `Nc1nc2c(ncn2[C@@H]2O[C@H](COP(=O)(O)OP(=O)(O)OP(=O)(O)O)[C@@H](O)[C@H]2O)c(=O)[nH]1` [GTP] here?
A: GTP, CTP and TTP could compete with ATP, but their effect was milder

Q: For `Cc1cn([C@H]2C[C@H](O)[C@@H](COP(=O)(O)OP(=O)(O)OP(=O)(O)O)O2)c(=O)[nH]c1=O` [TTP], which “competition with 8-azido-ATP” value [2] is on record?
A: GTP, CTP and TTP could compete with ATP, but their effect was milder
